Experimental data from patent US20140221498A1, “AMINO DIOL DERIVATIVES AS SPHINGOSINE 1-PHOSPHATE (S1P) RECEPTOR MODULATORS” (ALLERGAN, INC., priority 2013, published 2014).

Target: T1, human S1P1 receptor (Homo sapiens, UniProt P21453)
T1 construct: expressed in transfected cells; membranes used
Assay: GTP γ35S binding assay for S1P1 activity
Type: biochemical
Details: membranes of cells stably expressing the S1P1 receptor, test compounds 0.08 to 5,000 nM, 30 min at 25° C.
Procedure: Compounds were synthesized and tested for S1P1 activity using the GTP γ^35S binding assay. These compounds may be assessed for their ability to activate or block activation of the human S1P1 receptor in cells stably expressing the S1P1 receptor.
GTP γ^35S binding was measured in the medium containing (mM) HEPES 25, pH 7.4, MgCl2 10, NaCl 100, dithitothreitol 0.5, digitonin 0.003%, 0.2 nM GTP γ^35S, and 5 μg membrane protein in a volume of 150 μl. Test compounds were included in the concentration range from 0.08 to 5,000 nM unless indicated otherwise. Membranes were incubated with 100 μM 5′-adenylylimmidodiphosphate for 30 min, and subsequently with 10 μM GDP for 10 min on ice. Drug solutions and membrane were mixed, and then reactions were initiated by adding GTP γ^35S and continued for 30 min at 25° C. Reaction mixtures were filtered over Whatman GF/B filters under vacuum, and washed three times with 3 mL of ice-cold buffer (HEPES 25, pH7.4, MgCl2 10 and NaCl 100). Filters were dried and mixed with scintillant, and counted for ^35S activity using a β-counter. Agonist-induced GTP γ^35S binding was obtained by subtracting that in the absence of agonist. Binding data were analyzed using a non-linear regression method. In case of antagonist assay, the reaction mixture contained 10 nM S1P in the presence of test antagonist at concentrations ranging from 0.08 to 5000 nM.

T1 sequence (P21453 whole entry): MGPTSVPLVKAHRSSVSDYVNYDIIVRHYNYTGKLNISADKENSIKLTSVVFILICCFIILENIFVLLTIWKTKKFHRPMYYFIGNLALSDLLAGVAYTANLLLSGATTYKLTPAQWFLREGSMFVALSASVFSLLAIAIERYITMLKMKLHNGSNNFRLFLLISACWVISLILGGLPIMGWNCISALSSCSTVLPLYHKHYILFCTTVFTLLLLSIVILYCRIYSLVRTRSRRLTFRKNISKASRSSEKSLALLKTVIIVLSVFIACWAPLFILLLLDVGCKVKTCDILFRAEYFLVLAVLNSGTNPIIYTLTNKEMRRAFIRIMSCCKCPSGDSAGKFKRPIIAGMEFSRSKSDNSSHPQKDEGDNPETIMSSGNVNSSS

Row | Compound | EC50 [nM]
1 | Cc1ccc(CC(CCCOc2ccc(CCC(N)(CO)CO)cc2)c2cc(F)cc(F)c2)cc1C (stereo not drawn) [Compound 1, 2-amino-2-[2-(4-{[4-(3,5-difluorophenyl)-5-(3,4-dimethylphenyl)pentyl]oxy}phenyl)ethyl]propane-1,3-diol] | 15.1
2 | Cc1ccc(CC(CCCOc2ccc(CCC(N)(CO)CO)cc2)c2cccc(Cl)c2)cc1C (stereo not drawn) [Compound 3, 2-amino-2-[2-(4-{[4-(3-chlorophenyl)-5-(3,4-dimethylphenyl)pentyl]oxy}phenyl)ethyl]propane-1,3-diol] | 92.4
3 | Cc1ccc(CC(CCCOc2ccc(CCC(N)(CO)CO)cc2)c2cccc(F)c2)cc1C (stereo not drawn) [Compound 2, 2-amino-2-[2-(4-{[5-(3,4-dimethylphenyl)-4-(3-fluorophenyl)pentyl]oxy}phenyl)ethyl]propane-1,3-diol] | 42
